Assays:
Assay in all cases: relative viability (nuclei count vs DMSO), 5 days (fraction); higher = more cells survive
201T = tested on: 201T
Procedure, shortened: (§1)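 Lung cancer cell lines, seeded in 1536-well plates, were treated the following day by pin tool with a single drug or with five library-drug doses (not always all listed) in √10 steps on top of a fixed anchor-drug dose. Cells were fixed and nuclei stained in one step after 5 days, and nuclei were counted. Relative viability is the nuclei count for treated wells divided by that for vehicle wells, reported as medians of duplicate plates.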

ABC-1 = tested on: ABC-1
Procedure, shortened: as §1

COR-L 105 = tested on: COR-L 105
Procedure, shortened: as §1

COR-L23 = tested on: COR-L23
Procedure, shortened: as §1

EKVX = tested on: EKVX
Procedure, shortened: as §1

EPLC-272H = tested on: EPLC-272H
Procedure, shortened: as §1

H3255 = tested on: H3255
Procedure, shortened: as §1

HCC-15 = tested on: HCC-15
Procedure, shortened: as §1

HCC-44 = tested on: HCC-44
Procedure, shortened: as §1

HCC-827 = tested on: HCC-827
Procedure, shortened: as §1

LCLC-103H = tested on: LCLC-103H
Procedure, shortened: as §1

NCI-H1437 = tested on: NCI-H1437
Procedure, shortened: as §1

NCI-H1650 = tested on: NCI-H1650
Procedure, shortened: as §1

NCI-H1651 = tested on: NCI-H1651
Procedure, shortened: as §1

NCI-H1792 = tested on: NCI-H1792
Procedure, shortened: as §1

NCI-H1975 = tested on: NCI-H1975
Procedure, shortened: as §1

NCI-H2087 = tested on: NCI-H2087
Procedure, shortened: as §1

NCI-H520 = tested on: NCI-H520
Procedure, shortened: as §1

NCI-H647 = tested on: NCI-H647
Procedure, shortened: as §1

NCI-H661 = tested on: NCI-H661
Procedure, shortened: as §1

NCI-H727 = tested on: NCI-H727
Procedure, shortened: as §1

NCI-H838 = tested on: NCI-H838
Procedure, shortened: as §1

UMC-11 = tested on: UMC-11
Procedure, shortened: as §1

SMILES: CCCCCCCCCCCC1=C(O)C(=O)C=C(O)C1=O [Embelin] + CC(C)C[C@H](NC(=O)[C@H](Cc1ccccc1)NC(=O)c1cnccn1)B(O)O [Bortezomib] (partner 0.002 µM)
- relative viability (201T; first compound 0.08 µM): 1.06
- relative viability (201T; first compound 0.8 µM): 1.17
- relative viability (201T; first compound 2.53 µM): 1.09
- relative viability (201T; first compound 8 µM): 1.09
- relative viability (ABC-1; first compound 0.08 µM): 0.299
- relative viability (ABC-1; first compound 0.8 µM): 0.371
- relative viability (ABC-1; first compound 2.53 µM): 0.252
- relative viability (ABC-1; first compound 8 µM): 0.257
- relative viability (COR-L 105; first compound 0.08 µM): 0.81
- relative viability (COR-L 105; first compound 0.8 µM): 0.901
- relative viability (COR-L 105; first compound 2.53 µM): 0.765
- relative viability (COR-L 105; first compound 8 µM): 0.961
- relative viability (COR-L23; first compound 0.08 µM): 1
- relative viability (COR-L23; first compound 0.8 µM): 1.1
- relative viability (COR-L23; first compound 2.53 µM): 1.21
- relative viability (COR-L23; first compound 8 µM): 1.21
- relative viability (EKVX; first compound 0.08 µM): 0.976
- relative viability (EKVX; first compound 0.8 µM): 0.936
- relative viability (EKVX; first compound 2.53 µM): 1.14
- relative viability (EKVX; first compound 8 µM): 1.13
- relative viability (EPLC-272H; first compound 0.08 µM): 0.804
- relative viability (EPLC-272H; first compound 0.8 µM): 1.07
- relative viability (EPLC-272H; first compound 2.53 µM): 1.17
- relative viability (EPLC-272H; first compound 8 µM): 0.86
- relative viability (H3255; first compound 0.08 µM): 0.962
- relative viability (H3255; first compound 0.8 µM): 0.975
- relative viability (H3255; first compound 2.53 µM): 0.702
- relative viability (H3255; first compound 8 µM): 0.889
- relative viability (HCC-15; first compound 0.08 µM): 1.07
- relative viability (HCC-15; first compound 0.8 µM): 1.02
- relative viability (HCC-15; first compound 2.53 µM): 1.18
- relative viability (HCC-15; first compound 8 µM): 1.11
- relative viability (HCC-44; first compound 0.08 µM): 0.838
- relative viability (HCC-44; first compound 0.8 µM): 0.865
- relative viability (HCC-44; first compound 2.53 µM): 0.864
- relative viability (HCC-44; first compound 8 µM): 0.897
- relative viability (HCC-827; first compound 0.08 µM): 1.12
- relative viability (HCC-827; first compound 0.8 µM): 1.07
- relative viability (HCC-827; first compound 2.53 µM): 1.06
- relative viability (HCC-827; first compound 8 µM): 1.17
- relative viability (LCLC-103H; first compound 0.08 µM): 1
- relative viability (LCLC-103H; first compound 0.8 µM): 1.14
- relative viability (LCLC-103H; first compound 2.53 µM): 1.07
- relative viability (LCLC-103H; first compound 8 µM): 0.885
- relative viability (NCI-H1437; first compound 0.08 µM): 0.602
- relative viability (NCI-H1437; first compound 0.8 µM): 0.528
- relative viability (NCI-H1437; first compound 2.53 µM): 0.618
- relative viability (NCI-H1437; first compound 8 µM): 0.347
- relative viability (NCI-H1650; first compound 0.08 µM): 0.191
- relative viability (NCI-H1650; first compound 0.8 µM): 0.189
- relative viability (NCI-H1650; first compound 2.53 µM): 0.203
- relative viability (NCI-H1650; first compound 8 µM): 0.213
- relative viability (NCI-H1651; first compound 0.08 µM): 0.958
- relative viability (NCI-H1651; first compound 0.8 µM): 0.92
- relative viability (NCI-H1651; first compound 2.53 µM): 1.01
- relative viability (NCI-H1651; first compound 8 µM): 1.02
- relative viability (NCI-H1792; first compound 0.08 µM): 0.93
- relative viability (NCI-H1792; first compound 0.8 µM): 1
- relative viability (NCI-H1792; first compound 2.53 µM): 1.09
- relative viability (NCI-H1792; first compound 8 µM): 1.03
- relative viability (NCI-H1975; first compound 0.08 µM): 0.45
- relative viability (NCI-H1975; first compound 0.8 µM): 0.432
- relative viability (NCI-H1975; first compound 2.53 µM): 0.372
- relative viability (NCI-H1975; first compound 8 µM): 0.367
- relative viability (NCI-H2087; first compound 0.08 µM): 0.83
- relative viability (NCI-H2087; first compound 0.8 µM): 0.807
- relative viability (NCI-H2087; first compound 2.53 µM): 0.735
- relative viability (NCI-H2087; first compound 8 µM): 0.935
- relative viability (NCI-H520; first compound 0.08 µM): 0.848
- relative viability (NCI-H520; first compound 0.8 µM): 0.255
- relative viability (NCI-H520; first compound 2.53 µM): 0.668
- relative viability (NCI-H520; first compound 8 µM): 0.511
- relative viability (NCI-H647; first compound 0.08 µM): 1.08
- relative viability (NCI-H647; first compound 0.8 µM): 1.28
- relative viability (NCI-H647; first compound 2.53 µM): 1.43
- relative viability (NCI-H647; first compound 8 µM): 0.929
- relative viability (NCI-H661; first compound 0.08 µM): 0.961
- relative viability (NCI-H661; first compound 0.8 µM): 0.867
- relative viability (NCI-H661; first compound 2.53 µM): 0.997
- relative viability (NCI-H661; first compound 8 µM): 0.78
- relative viability (NCI-H727; first compound 0.08 µM): 0.813
- relative viability (NCI-H727; first compound 0.8 µM): 0.997
- relative viability (NCI-H727; first compound 2.53 µM): 1.02
- relative viability (NCI-H727; first compound 8 µM): 0.798
- relative viability (NCI-H838; first compound 0.08 µM): 1.38
- relative viability (NCI-H838; first compound 0.8 µM): 1.12
- relative viability (NCI-H838; first compound 2.53 µM): 0.72
- relative viability (NCI-H838; first compound 8 µM): 0.936
- relative viability (UMC-11; first compound 0.08 µM): 0.771
- relative viability (UMC-11; first compound 0.8 µM): 0.966
- relative viability (UMC-11; first compound 2.53 µM): 0.896
- relative viability (UMC-11; first compound 8 µM): 0.547
